Results as given in patent US20220226270A1, “VERY-LONG-CHAIN POLYUNSATURATED FATTY ACIDS, ELOVANOID HYDROXYLATED DERIVATIVES, AND METHODS OF USE” (Board of Supervisors of Louisiana State University and …, priority 2019, published 2022).

These compounds were tested on hippocampal mixed neuronal culture (assay: Oxygen glucose deprivation (OGD) in hippocampal mixed neuronal culture). Settings: 500 nM, DIV 12, 90 min OGD (FIG. 18G).
Format: cell-based, rat
Excerpt: Primary cultures of cortical neurons: Primary cultures of cortical and hippocampal neurons were harvested from 18-day-old embryos (E18) taken from timed-pregnant, two-month-old Sprague-Dawley (SD) rats (Charles River Lab., Wilmington, Mass.). Briefly, timed-pregnant SD rats were euthanized and embryos were collected in sterile conditions. Embryonic brains were dissected out by forceps on ice and placed in a petri dish containing ice-cold Hank's Balanced Salt Solution (HBSS) (GIBCO). Meninges were removed under a dissecting microscope and cortical tissues were chopped into small pieces with micro-spring scissors. These tissues were transferred to 15 ml tubes containing trypsin-EDTA (0.025% in HBSS) and DNase I. The tubes were incubated in 37° C. chamber for 15 mins and were agitated every 5 mins. After stopping the trypsinization with 5 ml 10% FBS, these tissues were triturated 15 times with a fire polished Pasteur pipet. Cell clumps were left to settle for 2 mins and the supernatant was transferred to a 15 ml Eppendorf tube. The supernatant was filtered through a 70 μm pore-sized filter (Corning cell strainer) and centrifuged for 5 mins at 1000 rpm. The cells were then resuspended in Neurobasal medium (GIBCO) containing 2% B27 (GIBCO) and 2% N2 (GIBCO) supplements, along with 0.5 mM glutamine, 50 U/ml penicillin/streptomycin.
Oxygen glucose deprivation (OGD), NMDA excitotoxicity or uncompensated oxidative stress (UOS) exposure: An in vitro oxygen glucose deprivation (OGD) model was established. Primary cortical neurons were cultured from SD rat embryos. On day in vitro (DIV) 12, cells were washed with phosphate-buffered saline and incubated in glucose-free Neurobasal medium (GIBCO) for 30 mins. The cells were then placed in a modular incubator chamber and incubated in an anaerobic chamber (95% N2, 5% CO2) at 37° C. for 90 mins for OGD.
After 90 mins of OGD exposure, cells were returned to the original medium (Neurobasal medium (GIBCO) containing 2% B27 (GIBCO) and 2% N2 (GIBCO) supplements, along with 0.5 mM glutamine, 50 U/ml penicillin/streptomycin) and placed in a normoxic chamber (37° C., 5% CO2) for 2 h. Then the medium was changed with medium containing either ELV-N32 or ELV-N34 [500 nM] and maintained in a normoxic chamber (37° C., 5% CO2) for 12 h, after which cells were sampled and assayed for cell viability using different methods as previously described (25-28). […]
One 4×4 tile mosaic was acquired from the center of each well using a Zeiss 510 Meta laser confocal microscope and LSM 510 Meta software. […] An Otsu auto threshold was applied to each image of Hoechst-stained nuclei, and the area of each detected object was recorded. […]

SMILES	neuroprotection after OGD (Hoechst positive nuclei counting)
CC/C=C\C/C=C\C/C=C\C/C=C\C/C=C\C/C=C\CCCCCCCCCCCCC(=O)O [32:6n3, (14Z,17Z,20Z,23Z,26Z,29Z)-dotriaconta-14,17,20,23,26,29-hexaenoic acid]	showed neuroprotection
CC/C=C\C/C=C\C/C=C\C/C=C\C/C=C\C/C=C\CCCCCCCCCCCCCCC(=O)O [34:6n3, (16Z,19Z,22Z,25Z,28Z,31Z)-tetratriaconta-16,19,22,25,28,31-hexaenoic acid]	showed neuroprotection
CC/C=C\C[C@H](O)\C=C/C=C/C=C/[C@H](O)C/C=C\C/C=C\CCCCCCCCCCCCC(=O)[O-].[Na+] [ELV-N32-Na, sodium (14Z,17Z,20R,21E,23E,25Z,27S,29Z)-20,27-dihydroxydotriaconta-14,17,21,23,25,29-hexaenoate]	neuroprotection elicited
CC/C=C\C[C@H](O)\C=C/C=C/C=C/[C@H](O)C/C=C\C/C=C\CCCCCCCCCCCCCCC(=O)[O-].[Na+] [ELV-N34-Na, sodium (16Z,19Z,22R,23E,25E,27Z,29S,31Z)-22,29-dihydroxytetratriaconta-16,19,23,25,27,31-hexaenoate]	neuroprotection elicited
